Assay results published in ChEMBL document CHEMBL3044675, “Synthesis and Antifungal Activities of Some Novel Pyrimidine Derivatives” (2011).

How the values were obtained:
Assay type in all cases: functional
Thanatephorus cucumeris = test: Antifungal activity against Thanatephorus cucumeris at 50 ug/ml by poisoned food technique
Sclerotinia sclerotiorum = test: Antifungal activity against Sclerotinia sclerotiorum at 50 ug/ml by poisoned food technique
Ceratobasidium cereale = test: Antifungal activity against Ceratobasidium cereale at 50 ug/ml by poisoned food technique
Rhizoctonia solani = test: Antifungal activity against Rhizoctonia solani at 50 ug/ml by poisoned food technique
Phytophthora infestans = test: Antifungal activity against Phytophthora infestans at 50 ug/ml by poisoned food technique
Macrophoma = test: Antifungal activity against Macrophoma kuwatsukai at 50 ug/ml by poisoned food technique
Fusarium fujikuroi = test: Antifungal activity against Fusarium fujikuroi at 50 ug/ml by poisoned food technique
Fusarium graminearum = test: Antifungal activity against Fusarium graminearum at 50 ug/ml by poisoned food technique
Mycosphaerella arachidis = test: Antifungal activity against Mycosphaerella arachidis at 50 ug/ml by poisoned food technique
Bipolaris maydis = test: Antifungal activity against Cochliobolus heterostrophus at 50 ug/ml by poisoned food technique
Botrytis cinerea = test: Antifungal activity against Botryotinia fuckeliana at 50 ug/ml by poisoned food technique
Alternaria solani = test: Antifungal activity against Alternaria solani at 50 ug/ml by poisoned food technique
Alternaria mali = test: Antifungal activity against Alternaria mali at 50 ug/ml by poisoned food technique
Alternaria kikuchiana = test: Antifungal activity against Alternaria kikuchiana at 50 ug/ml by poisoned food technique

COc1ccc(C(=CC(=O)N2CCOCC2)c2ccc(Cl)cc2)cc1OC [DIMETHOMORPH]
Activity (Thanatephorus cucumeris): 23.5% | Activity (Sclerotinia sclerotiorum): 20% | Activity (Ceratobasidium cereale): 40% | Activity (Rhizoctonia solani): 68.3% | Activity (Phytophthora infestans): 9.1% | Activity (Macrophoma): 6.3% | Activity (Fusarium fujikuroi): 20% | Activity (Fusarium graminearum): 0% | Activity (Mycosphaerella arachidis): 0% | Activity (Bipolaris maydis): 17.4% | Activity (Botrytis cinerea): 18.5% | Activity (Alternaria solani): 5.9% | Activity (Alternaria mali): 7.1% | Activity (Alternaria kikuchiana): 22.7%

COc1cc(OC)nc(NCc2cnc(Cl)s2)n1
Activity (Thanatephorus cucumeris): 2% | Activity (Sclerotinia sclerotiorum): 0% | Activity (Ceratobasidium cereale): 5% | Activity (Rhizoctonia solani): 60.3% | Activity (Phytophthora infestans): 0% | Activity (Macrophoma): 46.9% | Activity (Fusarium fujikuroi): 26.7% | Activity (Fusarium graminearum): 29.6% | Activity (Mycosphaerella arachidis): 13.3% | Activity (Bipolaris maydis): 17.4% | Activity (Botrytis cinerea): 37% | Activity (Alternaria solani): 5.9% | Activity (Alternaria mali): 21.4% | Activity (Alternaria kikuchiana): 31.8%

Cc1cc(OC(=O)c2ccc(Cl)cc2)nc(C(C)C)n1
Activity (Thanatephorus cucumeris): 0% | Activity (Sclerotinia sclerotiorum): 60% | Activity (Ceratobasidium cereale): 0% | Activity (Rhizoctonia solani): 61.9% | Activity (Phytophthora infestans): 13.6% | Activity (Macrophoma): 37.5% | Activity (Fusarium fujikuroi): 53.3% | Activity (Fusarium graminearum): 40.7% | Activity (Mycosphaerella arachidis): 6.7% | Activity (Bipolaris maydis): 26.1% | Activity (Botrytis cinerea): 33.3% | Activity (Alternaria solani): 0% | Activity (Alternaria mali): 21.4% | Activity (Alternaria kikuchiana): 22.7%

Cc1cc(OC(=O)N2CCOCC2)nc(C(C)C)n1
Activity (Thanatephorus cucumeris): 19.6% | Activity (Sclerotinia sclerotiorum): 0% | Activity (Ceratobasidium cereale): 20% | Activity (Rhizoctonia solani): 61.9% | Activity (Phytophthora infestans): 0% | Activity (Macrophoma): 31.3% | Activity (Fusarium fujikuroi): 6.7% | Activity (Fusarium graminearum): 7.4% | Activity (Mycosphaerella arachidis): 6.7% | Activity (Bipolaris maydis): 17.4% | Activity (Botrytis cinerea): 18.5% | Activity (Alternaria solani): 0% | Activity (Alternaria mali): 0% | Activity (Alternaria kikuchiana): 40.9%

COc1cc(C(=O)Oc2cc(C)nc(C(C)C)n2)cc(OC)c1OC
Activity (Thanatephorus cucumeris): 9.8% | Activity (Sclerotinia sclerotiorum): 66.7% | Activity (Ceratobasidium cereale): 15% | Activity (Rhizoctonia solani): 63.5% | Activity (Macrophoma): 40.6% | Activity (Fusarium fujikuroi): 20% | Activity (Mycosphaerella arachidis): 6.7% | Activity (Bipolaris maydis): 26.1% | Activity (Botrytis cinerea): 14.8% | Activity (Alternaria solani): 0% | Activity (Alternaria mali): 28.6% | Activity (Alternaria kikuchiana): 31.8%

COc1ccc(/C(=C\C(=O)N2CCOCC2)c2ccc(F)cc2)cc1OC [FLUMORPH]
Activity (Thanatephorus cucumeris): 9.8% | Activity (Sclerotinia sclerotiorum): 0% | Activity (Ceratobasidium cereale): 20% | Activity (Rhizoctonia solani): 61.9% | Activity (Phytophthora infestans): 4.5% | Activity (Macrophoma): 21.9% | Activity (Fusarium fujikuroi): 13.3% | Activity (Fusarium graminearum): 7.4% | Activity (Mycosphaerella arachidis): 0% | Activity (Bipolaris maydis): 17.4% | Activity (Botrytis cinerea): 7.4% | Activity (Alternaria solani): 0% | Activity (Alternaria mali): 21.4% | Activity (Alternaria kikuchiana): 18.2%

COc1cc(OC)nc(NCc2ccc(Cl)nc2)n1
Activity (Thanatephorus cucumeris): 2% | Activity (Sclerotinia sclerotiorum): 20% | Activity (Ceratobasidium cereale): 5% | Activity (Rhizoctonia solani): 54% | Activity (Phytophthora infestans): 9.1% | Activity (Macrophoma): 46.9% | Activity (Fusarium fujikuroi): 20% | Activity (Fusarium graminearum): 0% | Activity (Mycosphaerella arachidis): 0% | Activity (Bipolaris maydis): 17.4% | Activity (Botrytis cinerea): 40.7% | Activity (Alternaria solani): 0% | Activity (Alternaria mali): 0% | Activity (Alternaria kikuchiana): 18.2%

Cc1cc(O)no1 [HYMEXAZOL]
Activity (Thanatephorus cucumeris): 78.4% | Activity (Sclerotinia sclerotiorum): 66.7% | Activity (Ceratobasidium cereale): 25% | Activity (Rhizoctonia solani): 63.5% | Activity (Phytophthora infestans): 36.4% | Activity (Macrophoma): 50% | Activity (Fusarium fujikuroi): 40% | Activity (Fusarium graminearum): 33.3% | Activity (Mycosphaerella arachidis): 93.3% | Activity (Bipolaris maydis): 34.8% | Activity (Botrytis cinerea): 70.4% | Activity (Alternaria solani): 88.2% | Activity (Alternaria mali): 85.7% | Activity (Alternaria kikuchiana): 81.8%

Cc1cc(OC(=O)c2ccc(F)cc2)nc(C(C)C)n1
Activity (Thanatephorus cucumeris): 15.7% | Activity (Sclerotinia sclerotiorum): 40% | Activity (Ceratobasidium cereale): 0% | Activity (Rhizoctonia solani): 55.6% | Activity (Phytophthora infestans): 18.2% | Activity (Macrophoma): 46.9% | Activity (Fusarium fujikuroi): 46.7% | Activity (Mycosphaerella arachidis): 0% | Activity (Bipolaris maydis): 13% | Activity (Botrytis cinerea): 14.8% | Activity (Alternaria solani): 0% | Activity (Alternaria mali): 21.4% | Activity (Alternaria kikuchiana): 27.3%

COC(=O)Nc1nc2ccccc2[nH]1 [CARBENDAZIM]
Activity (Thanatephorus cucumeris): 98% | Activity (Sclerotinia sclerotiorum): 73.3% | Activity (Ceratobasidium cereale): 100% | Activity (Rhizoctonia solani): 100% | Activity (Phytophthora infestans): 27.3% | Activity (Macrophoma): 43.8% | Activity (Fusarium fujikuroi): 60% | Activity (Fusarium graminearum): 59.3% | Activity (Mycosphaerella arachidis): 53.3% | Activity (Bipolaris maydis): 69.6% | Activity (Botrytis cinerea): 63% | Activity (Alternaria solani): 76.5% | Activity (Alternaria mali): 78.6% | Activity (Alternaria kikuchiana): 81.8%

Cc1cc(NC2CCCCC2)nc(C(C)C)n1
Activity (Thanatephorus cucumeris): 52.9% | Activity (Sclerotinia sclerotiorum): 33.3% | Activity (Ceratobasidium cereale): 0% | Activity (Rhizoctonia solani): 55.6% | Activity (Phytophthora infestans): 36.4% | Activity (Macrophoma): 0% | Activity (Fusarium fujikuroi): 13.3% | Activity (Fusarium graminearum): 22.2% | Activity (Mycosphaerella arachidis): 46.7% | Activity (Bipolaris maydis): 13% | Activity (Botrytis cinerea): 3.7% | Activity (Alternaria solani): 0% | Activity (Alternaria mali): 21.4% | Activity (Alternaria kikuchiana): 27.3%

Cc1cc(C)nc(Nc2ccccc2)n1 [PYRIMETHANIL]
Activity (Thanatephorus cucumeris): 98% | Activity (Sclerotinia sclerotiorum): 86.7% | Activity (Ceratobasidium cereale): 40% | Activity (Rhizoctonia solani): 77.8% | Activity (Phytophthora infestans): 22.7% | Activity (Macrophoma): 100% | Activity (Fusarium fujikuroi): 20% | Activity (Fusarium graminearum): 44.4% | Activity (Mycosphaerella arachidis): 100% | Activity (Bipolaris maydis): 91.3% | Activity (Botrytis cinerea): 96.3% | Activity (Alternaria solani): 100% | Activity (Alternaria mali): 21.4% | Activity (Alternaria kikuchiana): 100%

Cc1cc(OCc2cnc(Cl)s2)nc(C(C)C)n1
Activity (Thanatephorus cucumeris): 3.9% | Activity (Sclerotinia sclerotiorum): 0% | Activity (Ceratobasidium cereale): 30% | Activity (Rhizoctonia solani): 61.9% | Activity (Phytophthora infestans): 0% | Activity (Macrophoma): 31.3% | Activity (Fusarium fujikuroi): 20% | Activity (Fusarium graminearum): 14.8% | Activity (Mycosphaerella arachidis): 0% | Activity (Bipolaris maydis): 17.4% | Activity (Botrytis cinerea): 7.4% | Activity (Alternaria solani): 0% | Activity (Alternaria mali): 0% | Activity (Alternaria kikuchiana): 18.2%

Cc1cc(Nc2ccccc2)nc(C(C)C)n1
Activity (Thanatephorus cucumeris): 39.2% | Activity (Sclerotinia sclerotiorum): 0% | Activity (Ceratobasidium cereale): 5% | Activity (Rhizoctonia solani): 57.1% | Activity (Phytophthora infestans): 0% | Activity (Macrophoma): 21.9% | Activity (Fusarium fujikuroi): 0% | Activity (Fusarium graminearum): 7.4% | Activity (Mycosphaerella arachidis): 33.3% | Activity (Bipolaris maydis): 26.1% | Activity (Botrytis cinerea): 7.4% | Activity (Alternaria solani): 11.8% | Activity (Alternaria mali): 21.4% | Activity (Alternaria kikuchiana): 27.3%

Cc1cc(Nc2ccc(OC(F)(F)F)cc2)nc(C(C)C)n1
Activity (Thanatephorus cucumeris): 76.5% | Activity (Sclerotinia sclerotiorum): 0% | Activity (Ceratobasidium cereale): 25% | Activity (Rhizoctonia solani): 66.7% | Activity (Phytophthora infestans): 36.4% | Activity (Macrophoma): 25% | Activity (Fusarium fujikuroi): 40% | Activity (Fusarium graminearum): 44.4% | Activity (Mycosphaerella arachidis): 46.7% | Activity (Bipolaris maydis): 39.1% | Activity (Botrytis cinerea): 25.9% | Activity (Alternaria solani): 35.3% | Activity (Alternaria mali): 50% | Activity (Alternaria kikuchiana): 63.6%

Cc1cc(OCc2ccc(Cl)nc2)nc(C(C)C)n1
Activity (Thanatephorus cucumeris): 80.4% | Activity (Sclerotinia sclerotiorum): 0% | Activity (Ceratobasidium cereale): 35% | Activity (Rhizoctonia solani): 63.5% | Activity (Phytophthora infestans): 22.7% | Activity (Macrophoma): 31.3% | Activity (Fusarium fujikuroi): 20% | Activity (Fusarium graminearum): 25.9% | Activity (Mycosphaerella arachidis): 13.3% | Activity (Bipolaris maydis): 34.8% | Activity (Botrytis cinerea): 29.6% | Activity (Alternaria solani): 41.2% | Activity (Alternaria mali): 21.4% | Activity (Alternaria kikuchiana): 45.5%
